Assay results reported in US20060079453A1, “Hla binding peptides and their uses” (priority 2002, published 2006).
Several values for one entry are separate records, joined by “and”; a condition that tells them apart may be missing. Identical values can stand only once. Like-named read-outs stand apart in the source and are kept apart here. No end group written: not given here.

Experiments:
Assay in all cases: biochemical
Format in all cases: binding
[1] = biological target: HLA-A*0101 (Homo sapiens, UniProt P04439, A114D/A174V/A182V/D101N/D185E/E176A/E190D/L180R/Q94H/R68K/S129P/T187R/V100A/V91M/W191G)
[2] = biological target: HLA-B*1801 (Homo sapiens, UniProt P01889, A329T/A93T/A95T/C349S/D201E/D54G/D98Y/E176V/E187T/E204Q/E69T/K202T/Q94N/R155S/R180L/S121R/V306I/Y140S/Y195H/Y33H/Y91S)
[3] = biological target: HLA-B*4001 (Homo sapiens, UniProt P01889, A65T/A93T/A95T/D138N/D98Y/E176V/E69K/N87E/Q56L/Q94N/R180L/S121R/S35A/S48T/T167S/V36M/W171L/Y33H/Y91S)
[4] = biological target: HLA-B*4002 (Homo sapiens, UniProt P01889, A65T/A93T/A95T/D138N/D201E/D98Y/E176V/E204Q/E69K/K202T/N87E/Q56L/Q94N/R180L/S48T/Y33H/Y91S)
[5] = biological target: HLA-B*4402 (Homo sapiens, UniProt P01889, A223V/A65T/A93T/A95T/D201E/D98Y/E176V/E187L/E204Q/E69K/G107R/H137Y/K202T/L105A/L119I/N104T/N87E/Q56L/Q94N/R106L/R155S/R180D/S101N/S121R/S35A/S48T/T118I/V36M/W191S/Y140D/Y91S)
[6] = biological target: HLA-B*4403 (Homo sapiens, UniProt P01889, A223V/A65T/A93T/A95T/D201E/D98Y/E176V/E187L/E204Q/E69K/G107R/H137Y/K202T/L105A/L119I/N104T/N87E/Q56L/Q94N/R106L/R155S/R180L/S101N/S121R/S35A/S48T/T118I/V36M/W191S/Y140D/Y91S)
[7] = biological target: HLA-B*4501 (Homo sapiens, UniProt P01889, A329T/A65T/A93T/A95T/C349S/D138N/D201E/D98Y/E176V/E187L/E204Q/E69K/H137Y/K202T/L119W/N87E/Q56L/Q94N/R155S/R180D/S121R/S35A/S48T/V127L/V306I/V36M/W191S/Y140L/Y33H/Y91S)
[8] = biological target: HLA-A*3002 (Homo sapiens, UniProt P04439, D101N/D140H/D185E/E176R/F33S/G80R/H175R/K168Q/Q94H/R138E/R41S/V100E)
[9] = Binding affinity to A*0101 (expressed as an IC50)
[10] = Binding affinity to A*3002 (expressed as an IC50)

Sequence: NVDQQNIDMY
- IC50 ([1]; read-out: Binding affinity to A*0101 (expressed as an IC50)): 47 nM

Sequence: AENLWVTVY
- IC50 ([2]; B*1801): 51 nM and 155 nM and 122 nM
- IC50 ([3]; B*4001): 1360 nM and 1580 nM
- IC50 ([4]; B*4002): 90 nM and 547 nM
- IC50 ([5]; B*4402): 66 nM and 308 nM
- IC50 ([6]; B*4403): 43 nM and 284 nM
- IC50 ([7]; B*4501): 68 nM and 200 nM and 301 nM

Sequence: ATSNYYIVTY
- IC50 [1, 9]: 428 nM

Sequence: AENLWVTVQ
- IC50 [2]: 49600 nM
- IC50 [4]: 85 nM
- IC50 [5]: 1220 nM
- IC50 [6]: 188 nM
- IC50 [7]: 100 nM

Sequence: LSLGPGPGFY
- IC50 [1, 9]: 21 nM
- IC50 [8, 10]: 8.2 nM

Sequence: GEFPYKAAA
- IC50 ([3]; B*4001): 170 nM
- IC50 ([4]; B*4002): 3.9 nM
- IC50 ([5]; B*4402): 746 nM
- IC50 ([6]; B*4403): 2540 nM
- IC50 ([7]; B*4501): 11 nM

Sequence: YENLWVTVY
- IC50 [2]: 29 nM
- IC50 [4]: 324 nM
- IC50 [5]: 640 nM
- IC50 [6]: 369 nM
- IC50 [7]: 10700 nM

Sequence: QEILDLWV
- IC50 ([2]; B*1801): > 22800 nM
- IC50 ([4]; B*4002): 1720 nM
- IC50 ([5]; B*4402): > 81400 nM
- IC50 ([6]; B*4403): 5920 nM
- IC50 ([7]; B*4501): 5500 nM

Sequence: AENLWVTVP
- IC50 [2]: 38400 nM
- IC50 [3]: 9710 nM
- IC50 [4]: 339 nM
- IC50 [5]: 7720 nM
- IC50 [6]: 2470 nM
- IC50 [7]: 187 nM

Sequence: KTGPGPGHLY
- IC50 [1, 9]: 29 nM
- IC50 [8, 10]: 1.3 nM

Sequence: HTDTPTLHEY
- IC50 [1, 9]: 20 nM and 30 nM
- IC50 [8]: 54 nM

Sequence: RERPDNYV
- IC50 ([2]; read-out: B*1801): > 73800 nM
- IC50 ([3]; read-out: B*4001): 71600 nM
- IC50 ([4]; read-out: B*4002): 62 nM
- IC50 ([5]; read-out: B*4402): > 67600 nM
- IC50 ([6]; read-out: B*4403): > 34500 nM
- IC50 ([7]; read-out: B*4501): 34600 nM

Sequence: AENLKVTVY
- IC50 [2]: 138 nM
- IC50 [3]: 7750 nM
- IC50 [5]: 253 nM
- IC50 [6]: 487 nM
- IC50 [7]: 9620 nM

Sequence: AENLWVTPY
- IC50 [2]: 41 nM
- IC50 [3]: 274 nM
- IC50 [5]: 127 nM
- IC50 [6]: 44 nM
- IC50 [7]: 122 nM

Sequence: AEDLWVTVY
- IC50 ([2]; B*1801): 354 nM
- IC50 ([4]; B*4002): 3520 nM
- IC50 ([5]; B*4402): 2330 nM
- IC50 ([6]; B*4403): 469 nM
- IC50 ([7]; B*4501): 1840 nM
